Experimental data taken from patent publication US20090297579A1, “Control of Cells and Cell Multipotentiality in Three Dimensional Matrices” (Massachusetts Institute of Technology, priority 2006, published 2009).
Entries after “also recorded” stand apart in the source; their conditions may differ.

Columns and labels:
MEFs [1] = experiment: Cell cycle arrest assay with staurosporine: 3D-bilateral structure development / cell mass contraction; format: cell-based, mouse
Method: (§1) Cell Cycle Arrest Assays with Staurosporine. Cultures of MEFs were incubated in FM with Staurosporine (20 nM) during 7 days while controls were incubated in FM. At day 6, a pulse of BrdU was applied overnight. MEFs were fixed at day 7 and stained with a mouse monoclonal antibody IGgl anti-BrdU FITC-conjugated (BD PharMingen, 33284×). To assess the dose-response effect of staurosporine on MEFs, these were incubated with different concentrations of staurosporine (0, 2, 20 nM) during 14 days. Visual inspection of the cell mass contraction along these 14 days was performed.
(§2) (A) MEFs were incubated with and without staurosporine (20 nM) during 7 days. Proliferation was studied by means of a BrdU pulse followed by immunostaining against BrdU. (B) MEFs were incubated, during 14 days, with different concentrations of staurosporine (0, 2, 20 nM) to further analyze the effect of proliferation in the contraction phenomenon.

MEFs [2] = experiment: BrdU pulse proliferation assay with staurosporine; format: cell-based, mouse; settings: staurosporine 20 nM, 7 days, BrdU pulse at day 6
Method: as §1, §2

[3] = test system: Mouse Embryonic Fibroblasts (MEFs); experiment: Gel contraction and bilateral/embryoid-like structure development of MEFs in self-assembling peptide scaffold; format: cell-based; settings: for Gel contraction: Table 4, 10 days
Method: In other experiments with RAD16-I, MEF cells (<8th passage) were trypsinized from 75 cm2 culture flasks, suspended in sucrose 20% and mixed with the self-assembling peptide RAD16-I (BD, Puramatrix) 0.5% to obtain a final MEF concentration of 2·10^6 cells/ml and 0.25% of RAD16-I. This suspension was seeded into inserts (Millipore) and jellified by addition of FM. After jellification, FM was added on the hydrogel. Incubation was performed at 37° C. with 5% CO2 and medium was changed every 2 days.
The shape presents bilateral symmetry (3D-bilateral) and resembles some aspects of a vertebrate embryo undergoing axis formation. Collagen I cultures presented a different morphology, basically consisting of a small spherical ball produced by equal contraction forces, without any distinctive shape or pattern.
The percentage of self-assembling peptide used for these experiments was half of the amount we described above (0.25% vs. 0.5%). […] Thus, in this example, two different parameters that may affect the development of such embryoid-like structures were studied: self-assembling peptide scaffold stiffness and fetal bovine serum concentration. […] Gel contraction and the presence of embryoid-like structure development were analyzed. nt=condition not tested.

[4] = test system: EB-derived cells (mouse embryonic stem cell line R1 Oct4-GFP); experiment: Alkaline phosphatase activity of EB-derived cells in 3D culture; format: cell-based; settings: EB-dc 3D cultures
Method: Fluorescence microscopy was used to monitor GFP expression during EB formation. The EB were harvested and allowed to settle in a tube. The medium was removed and EB were gently treated with trypsin-EDTA 1× (GIBCO). The resultant EB-derived cells were encapsulated into the peptide scaffold (3D cultures) at a final concentration of 2×10^6 cells/mL, as described above, and cultured in control medium (ES medium in the absence of LIF). 2D cultures, in regular culture plates, were also performed as controls. The EB-derived cells were plated into 12-well plate containing control medium (ES medium in the absence of LIF) at a concentration of 760,000 cells/mL (200,000 cells/cm^2). […]
Alkaline phosphatase activity. Alkaline phosphatase enzyme activity (ALP) of 2D and 3D cultures was measured in triplicate cultures before and after the osteogenic differentiation. […] ALP enzyme activity was calculated after measuring the absorbance of the reaction product formed, p-nitrophenol, at 405 nm on a spectrophotometer. […] Total protein levels were determined using a protein detection kit (Bio-Rad) based on the method of Lowry in order to normalize total protein levels. […]

[5] = test system: Mouse Embryonic Fibroblasts (MEF); experiment: Alkaline phosphatase activity of MEFs in 3D culture; format: cell-based
Method: Osteogenic differentiation of Mouse Embryonic Fibroblasts (MEF). Mouse embryonic fibroblasts (MEFs) were purchased from ATCC(SCRC-1008). They were isolated from mouse embryos derived from C57BL/6 mothers at 14 days of gestation (E14). The MEFs were expanded prior to osteogenic induction in MEF culture medium of DMEM (high glucose) containing 10% FBS (fetal bovine serum, Hyclone), 4 mM L-glutamine (GIBCO), and 1% (v/v) penicillin-streptomycin (GIBCO). The differentiation experiments were carried out using cells between passages 3 and 5. The MEFs were encapsulated into the peptide scaffold (3D cultures) at a final concentration of 2×10^6 cells/mL, as described above (3D cultures). 2D cultures were also performed by culturing MEFs into 12-well regular culture plates. Both the 2D and 3D cultures were maintained in MEF culture medium for 2-4 days (FIG. 1B). Next, the MEF medium was changed by osteogenic medium (same as in mESC osteogenic induction section). Also, […] of 1-alpha,25-(OH)2 vitamin D3 (Sigma) was added to the osteogenic medium as previously described for mouse-derived NIH 3T3 fibroblasts. The cultures were maintained for different time periods (FIG. 1B, STAGE 3) in osteogenic medium at 37° C. in humidified air with 5% CO2. The medium was regularly exchanged with fresh osteogenic medium.
Alkaline phosphatase activity. Alkaline phosphatase enzyme activity (ALP) of 2D and 3D cultures was measured in triplicate cultures before and after the osteogenic differentiation. The cultures were rinsed twice with […] (TBS, 50 mM Tris base, 0.15 M NaCl, pH 7.4) and then the cells were incubated with 5 mM p-nitrophenyl phosphate (p-nitrophenyl phosphate disodium salt tablets, Sigma) solution in glycine buffer (50 mM glycine, 1 mM MgCl2, pH 10.5) for 30 min at 37° C. ALP enzyme activity was calculated after measuring the absorbance of the reaction product formed, p-nitrophenol, at 405 nm on a spectrophotometer. Standards were prepared by consecutively diluting 10 mM p-nitrophenol (Sigma) solution in glycine buffer at concentrations ranging from 0.0001 mM to 0.06 mM. Total protein levels were determined using a protein detection kit (Bio-Rad) based on the method of Lowry in order to normalize total protein levels. The final APL activity was expressed in units/mg of protein (one unit will hydrolyze 1 micromoles of p-nitrophenyl phosphate per minute at pH 10.5).

| ALP activity ([5]; MEF 3D control cultures, after culture) | ALP activity ([5]; MEF 3D control cultures, initial) | ALP activity ([5]; MEF 3D osteogenic cultures, after osteogenic induction) | ALP activity ([5]; MEF 3D osteogenic cultures, initial) | Molecule | Effect on 3D-bilateral structure development at diluted concentrations (MEFs [1]; staurosporine 0, 2, 20 nM, 14 days) | Development of the 3D-bilateral structure (MEFs [1]; staurosporine 20 nM, 7 days, MEFs in RAD16-I) | Incorporation of BrdU (MEFs [2]) | Contraction ([3]; Table 3, 0.25% RAD, 2% FBS) | Contraction ([3]; Table 3, 0.25% RAD, 10% FBS) | Contraction ([3]; Table 3, 0.25% RAD, 15% FBS) | Structure formation ([3]; Table 3, 0.25% RAD, 15% FBS) | Contraction ([3]; Table 3, 0.5% RAD, 2% FBS) | Contraction ([3]; Table 3, 0.5% RAD, 10% FBS) | Contraction ([3]; Table 3, 0.5% RAD, 15% FBS) | Gel contraction ([3]; peptide gel 0.25%, FBS 2%) | Gel contraction ([3]; peptide gel 0.25%, FBS 15%) | Gel contraction ([3]; peptide gel 0.5%, FBS 15%) | ALP activity ([4]; control (no osteogenic induction)) | ALP activity ([4]; osteogenic-induced) |
| --- | --- | --- | --- | --- | --- | --- | --- | --- | --- | --- | --- | --- | --- | --- | --- | --- | --- | --- | --- |
| – | – | – | – | CN[C@@H]1C[C@H]2O[C@@](C)([C@@H]1OC)n1c3ccccc3c3c4c(c5c6ccccc6n2c5c31)C(=O)NC4 [Staurosporine] | dose-response inhibitory effect | clearly abrogated; also recorded: prevented | no incorporation | – | – | – | – | – | – | – | – | – | – | – | – |
| 68.1 U/mg | 1.8 U/mg | 118.3 U/mg | 1.5 U/mg | AcN-RADARADARADARADA-CONH2 [Peptide] | – | – | – | No contraction | Low | High contraction; | bilateral structures | No contraction | Very low | Low | Low | High | Low | 190.2 U/mg | 87 U/mg |
